One assay concerns the target T1, Acetylcholinesterase (Rattus norvegicus, UniProt P37136).
T1 construct: S1 fraction of a homogenate of male Wistar rat cerebral cortex as the cholinesterase source; from tissue; host or cells: male Wistar rat cerebral cortex, S1 fraction of homogenate
Kind of assay: Cholinesterase inhibitory activity with (acetyl[^3 H])-acetylcholine. The assay is classed as biochemical. The note with it: S1 fraction of homogenate of male Wistar rat cerebral cortex; 30 minutes incubation.

A further assay concerns mice. Put plainly: Antidepressant activity, tail suspension test. The class given is in vivo, ICR male mice. Conditions: 30 mg/kg, oral; thirty minutes later suspended on tails for 10 minutes; **P < 0.01; saline 49.45 ± 2.47. The method, then:
The antidepressant activity of the compound of the present invention was assayed by means of tail suspension test using ICR male mice (five weeks of age, weighing 23.5 to 37.6 g) as test animals. […]. Thirty minutes later, the mice were suspended on tails for 10 minutes and immobility thereof (% control) was measured. The antidepressant activity of the test compound was shown as in percent control of immobility. As a comparative compound, desipramine, which is known to have an antidepressant activity, was employed and the immobility thereof was measured in the same manner as described above.

Structures can show the parent of a compound that is named as a salt.

T1 sequence (P37136 32-614): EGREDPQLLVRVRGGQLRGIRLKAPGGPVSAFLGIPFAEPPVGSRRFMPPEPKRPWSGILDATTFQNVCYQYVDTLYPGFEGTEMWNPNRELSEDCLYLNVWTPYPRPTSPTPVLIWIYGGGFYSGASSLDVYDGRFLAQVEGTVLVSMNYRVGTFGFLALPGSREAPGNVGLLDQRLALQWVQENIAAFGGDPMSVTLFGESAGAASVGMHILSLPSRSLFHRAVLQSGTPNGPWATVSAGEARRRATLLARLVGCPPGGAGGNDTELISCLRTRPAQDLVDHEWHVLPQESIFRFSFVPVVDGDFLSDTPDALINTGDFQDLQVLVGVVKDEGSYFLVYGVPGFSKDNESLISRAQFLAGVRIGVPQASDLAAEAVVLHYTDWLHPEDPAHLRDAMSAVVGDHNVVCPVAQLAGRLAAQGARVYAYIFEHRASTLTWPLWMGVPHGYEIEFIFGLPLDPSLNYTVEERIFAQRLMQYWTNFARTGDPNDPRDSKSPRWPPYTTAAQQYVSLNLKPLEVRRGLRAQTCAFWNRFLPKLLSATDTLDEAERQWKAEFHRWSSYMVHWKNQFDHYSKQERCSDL
Method for Acetylcholinesterase: The cholinesterase inhibitory activity of the compound of this invention was assayed with (acetyl[^3 H])-acetylcholine. More specifically, (acetyl[^3 H])-acetylcholine as the substrate and the compound of this invention as the test sample were added to the S1 fraction of a homogenate of male Wistar rat cerebral cortex as the cholinesterase source. The mixture was incubated for 30 minutes, after completion of the reaction, to the reaction mixture was added a toluene-based scintillator, and the mixture was shaken. The reaction product [^3 H]-acetic acid was transferred to the toluene layer, which was subjected to determination of cholinesterase inhibitory activity by counting with a liquid scintillation counter.
The cholinesterase inhibitory activity of the test compound was expressed in 50% inhibitory concentration (IC50).

`O=C(CCC1CCN(Cc2ccccc2)CC1)c1ccc2c(c1)CNCCO2` [3-A, 3-[1-(Phenylmethyl)piperidin-4-yl]-1-(2,3,4,5-tetrahydro-1,4-benzoxazepin-7-yl)-1-propanone dihydrochloride] yielded an IC50 against Acetylcholinesterase of 0.0175 µM. On Acetylcholinesterase, `Cl.Cl.O=C(CCC1CCN(Cc2ccccc2)CC1)c1ccc2c(c1)CN(Cc1ccccc1)CCO2` [3-B, 1-[4-(Phenylmethyl)-2,3,4,5-tetrahydro-1,4-benzoxazepin-7-yl]-3-[1-(phenylmethyl)piperidin-4-yl]-1-propanone dihydrochloride] gave an IC50 of 0.119 µM. This compound also registered an Immobility in the assay with mice of 34.37 ± 4.49%.

The compound `O=C(CCC1CCN(Cc2ccccc2)CC1)c1ccc2c(c1)CN(Cc1ccc([N+](=O)[O-])cc1)CCO2` [8-5] returned a concentration for half-maximal inhibition (IC50) against Acetylcholinesterase of 0.0127 µM. In other words, the double-digit nanomolar range.

In turn, `CC(=O)N1CCOc2ccc(C(=O)CCC3CCN(Cc4ccccc4)CC3)cc2C1` [Example 4, 1-(4-Acetyl-2,3,4,5-tetrahydro-1,4-benzoxazepin-7-yl)-3-[1-(phenylmethyl)piperidin-4-yl]-1-propanone hydrochloride] registered an IC50 against Acetylcholinesterase of 0.0545 µM.

Turning to `COc1ccc(CN2CCOc3ccc(C(=O)CCC4CCN(Cc5ccccc5)CC4)cc3C2)cc1` [Example 5, 1-[4-(4-Methoxyphenylmethyl)-2,3,4,5-tetrahydro-1,4-benzoxazepin-7-yl]-3-[1-(phenylmethyl)piperidin-4-yl]-1-propanone dihydrochloride], it took 0.0696 µM to reach half-maximal inhibition on Acetylcholinesterase (IC50). This IC50 and that of the compound before are within 1.5-fold of each other. Same read-out and setting: to `O=CN1CCOc2ccc(C(=O)CCN3CCN(Cc4ccccc4)CC3)cc2C1` [Example 6, 1-(4-Formyl-2,3,4,5-tetrahydro-1,4-benzoxazepin-7-yl)-3-[4-(phenylmethyl)piperazin-1-yl]-1-propanone dihydrochloride] belongs 0.107 µM. `CNCCCN1c2ccccc2CCc2ccccc21` [desipramine, reference compound] registered an Immobility with mice of 37.25 ± 3.32%.

The values above are taken from patent US6319916A, “Heterocyclic compounds, their production and use” (Takeda Chemical Industries, Ltd., priority 1992, dated 2001).
